Source: US20230123334A1, “AMINO LIPID COMPOUND, PREPARATION METHOD THEREFOR, AND APPLICATION THEREOF” (SHENZHEN SHENXIN BIOTECHNOLOGY CO., LTD., priority 2020, published 2023)

Test system: HEK293 cells
Assay: Preliminary screening as DNA vectors, GFP transfection of HEK293 cells
Type: cell-based
Conditions: amino lipid/DOPE liposome with 75 ng plasmid DNA (psin-EGFP-IRES-Puro); number of GFP-expressing cells divided by total nuclei (Hoechst)
Method in brief: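 First, amino lipid and DOPE were vortexed in sodium acetate buffer (pH 5.6) to form liposomes. Next, these were held with 75 ng EGFP plasmid at room temperature for 30 min. Finally, HEK293 cells were added, cultured at 37° C., Hoechst-stained, and GFP+/total nuclei scored by imaging.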

Structure (SMILES)	Absolute DNA transfection efficiency in HEK293 cells [%]
CCCCCCCCCCCCCCCCNc1nc(NCCCN2CCOCC2)nc(SCCCCCCCCCC)n1 [S10N16 D8]	3.0
CCCCCCCCCCCCCCCCNc1nc(NCCCN2CCN(C)CC2)nc(SCCCCCCCCCC)n1 [S10N16 D9]	5.0
CCCCCCCCCCCCCCCCNc1nc(NCC2CCN(C)CC2)nc(SCCCCCCCCCC)n1 [S10N16 D10]	8.7
CCCCCCCCCCCCCCCCCCNc1nc(NCCN(C)C)nc(SCCCCCCCCCC)n1 [S10N18 D1]	9.0
CCCCCCCCCCCCCCCCCCNc1nc(NCCN2CCOCC2)nc(SCCCCCCCCCC)n1 [S10N18 D2]	2.1
CCCCCCCCCCCCCCCCCCNc1nc(NCCN2CCCC2)nc(SCCCCCCCCCC)n1 [S10N18 D3]	11.9
CCCCCCCCCCCCCCCCCCNc1nc(NCCN2CCCCC2)nc(SCCCCCCCCCC)n1 [S10N18 D4]	4.9
CCCCCCCCCCCCCCCCCCNc1nc(NCCN2CCN(C)CC2)nc(SCCCCCCCCCC)n1 [S10N18 D5]	1.8
CCCCCCCCCCCCCCCCCCNc1nc(NCCCN(C)C)nc(SCCCCCCCCCC)n1 [S10N18 D6]	7.8
CCCCCCCCCCCCCCCCCCNc1nc(NCCN(CC)CC)nc(SCCCCCCCCCC)n1 [S10N18 D7]	4.0
CCCCCCCCCCCCCCCCCCNc1nc(NCCCN2CCOCC2)nc(SCCCCCCCCCC)n1 [S10N18 D8]	0.3
CCCCCCCCCCCCCCCCCCNc1nc(NCCCN2CCN(C)CC2)nc(SCCCCCCCCCC)n1 [S10N18 D9]	3.3
CCCCCCCCCCCCCCCCCCNc1nc(NCC2CCN(C)CC2)nc(SCCCCCCCCCC)n1 [S10N18 D10]	3.8
CCCCCCCCCCCCN(CCCCCCCCCCCC)c1nc(NCCN(C)C)nc(SCCCCCCCCCC)n1 [S10^2N12 D1]	3.2
CCCCCCCCCCCCN(CCCCCCCCCCCC)c1nc(NCCN2CCOCC2)nc(SCCCCCCCCCC)n1 [S10^2N12 D2]	0.0
CCCCCCCCCCCCN(CCCCCCCCCCCC)c1nc(NCCN2CCCC2)nc(SCCCCCCCCCC)n1 [S10^2N12 D3]	1.1
CCCCCCCCCCCCN(CCCCCCCCCCCC)c1nc(NCCN2CCCCC2)nc(SCCCCCCCCCC)n1 [S10^2N12 D4]	0.1
CCCCCCCCCCCCN(CCCCCCCCCCCC)c1nc(NCCN2CCN(C)CC2)nc(SCCCCCCCCCC)n1 [S10^2N12 D5]	0.9
CCCCCCCCCCCCN(CCCCCCCCCCCC)c1nc(NCCCN(C)C)nc(SCCCCCCCCCC)n1 [S10^2N12 D6]	4.3
CCCCCCCCCCCCN(CCCCCCCCCCCC)c1nc(NCCN(CC)CC)nc(SCCCCCCCCCC)n1 [S10^2N12 D7]	0.7
CCCCCCCCCCCCN(CCCCCCCCCCCC)c1nc(NCCCN2CCOCC2)nc(SCCCCCCCCCC)n1 [S10^2N12 D8]	0.0
CCCCCCCCCCCCN(CCCCCCCCCCCC)c1nc(NCCCN2CCN(C)CC2)nc(SCCCCCCCCCC)n1 [S10^2N12 D9]	0.5

Structure (SMILES)	Absolute DNA transfection efficiency in HEK293 cells [%]
CCCCCCCCCCCCN(CCCCCCCCCCCC)c1nc(NCC2CCN(C)CC2)nc(SCCCCCCCCCC)n1 [S10^2N12 D10]	3.3
CCCCCCCCCCCSc1nc(NCCCCCC)nc(NCCN(C)C)n1 [S11N6 D1]	33.1
CCCCCCCCCCCSc1nc(NCCCCCC)nc(NCCN2CCOCC2)n1 [S11N6 D2]	19.0
CCCCCCCCCCCSc1nc(NCCCCCC)nc(NCCN2CCCC2)n1 [S11N6 D3]	8.3
CCCCCCCCCCCSc1nc(NCCCCCC)nc(NCCN2CCCCC2)n1 [S11N6 D4]	29.0
CCCCCCCCCCCSc1nc(NCCCCCC)nc(NCCN2CCN(C)CC2)n1 [S11N6 D5]	21.6
CCCCCCCCCCCSc1nc(NCCCCCC)nc(NCCCN(C)C)n1 [S11N6 D6]	29.3
CCCCCCCCCCCSc1nc(NCCCCCC)nc(NCCN(CC)CC)n1 [S11N6 D7]	25.0
CCCCCCCCCCCSc1nc(NCCCCCC)nc(NCCCN2CCOCC2)n1 [S11N6 D8]	13.3
CCCCCCCCCCCSc1nc(NCCCCCC)nc(NCCCN2CCN(C)CC2)n1 [S11N6 D9]	13.5
CCCCCCCCCCCSc1nc(NCCCCCC)nc(NCC2CCN(C)CC2)n1 [S11N6 D10]	8.8
CCCCCCCCCCCSc1nc(NCCCCCCC)nc(NCCN(C)C)n1 [S11N7 D1]	27.6
CCCCCCCCCCCSc1nc(NCCCCCCC)nc(NCCN2CCOCC2)n1 [S11N7 D2]	11.7
CCCCCCCCCCCSc1nc(NCCCCCCC)nc(NCCN2CCCC2)n1 [S11N7 D3]	19.4
CCCCCCCCCCCSc1nc(NCCCCCCC)nc(NCCN2CCCCC2)n1 [S11N7 D4]	4.6
CCCCCCCCCCCSc1nc(NCCCCCCC)nc(NCCN2CCN(C)CC2)n1 [S11N7 D5]	22.8
CCCCCCCCCCCSc1nc(NCCCCCCC)nc(NCCCN(C)C)n1 [S11N7 D6]	34.0
CCCCCCCCCCCSc1nc(NCCCCCCC)nc(NCCN(CC)CC)n1 [S11N7 D7]	11.6
CCCCCCCCCCCSc1nc(NCCCCCCC)nc(NCCCN2CCOCC2)n1 [S11N7 D8]	13.4
CCCCCCCCCCCSc1nc(NCCCCCCC)nc(NCCCN2CCN(C)CC2)n1 [S11N7 D9]	16.1
CCCCCCCCCCCSc1nc(NCCCCCCC)nc(NCC2CCN(C)CC2)n1 [S11N7 D10]	28.5
CCCCCCCCCCCSc1nc(NCCCCCCCC)nc(NCCN(C)C)n1 [S11N8 D1]	19.8

Structure (SMILES)	Absolute DNA transfection efficiency in HEK293 cells [%]
CCCCCCCCCCCSc1nc(NCCCCCCCC)nc(NCCN2CCOCC2)n1 [S11N8 D2]	18.6
CCCCCCCCCCCSc1nc(NCCCCCCCC)nc(NCCN2CCCC2)n1 [S11N8 D3]	26.0
CCCCCCCCCCCSc1nc(NCCCCCCCC)nc(NCCN2CCCCC2)n1 [S11N8 D4]	5.9
CCCCCCCCCCCSc1nc(NCCCCCCCC)nc(NCCN2CCN(C)CC2)n1 [S11N8 D5]	19.3
CCCCCCCCCCCSc1nc(NCCCCCCCC)nc(NCCCN(C)C)n1 [S11N8 D6]	36.9
CCCCCCCCCCCSc1nc(NCCCCCCCC)nc(NCCN(CC)CC)n1 [S11N8 D7]	10.1
CCCCCCCCCCCSc1nc(NCCCCCCCC)nc(NCCCN2CCOCC2)n1 [S11N8 D8]	12.2
CCCCCCCCCCCSc1nc(NCCCCCCCC)nc(NCCCN2CCN(C)CC2)n1 [S11N8 D9]	23.6
CCCCCCCCCCCSc1nc(NCCCCCCCC)nc(NCC2CCN(C)CC2)n1 [S11N8 D10]	33.4
CCCCCCCCCCCSc1nc(NCCCCCCCCC)nc(NCCN(C)C)n1 [S11N9 D1]	12.1
CCCCCCCCCCCSc1nc(NCCCCCCCCC)nc(NCCN2CCOCC2)n1 [S11N9 D2]	13.6
CCCCCCCCCCCSc1nc(NCCCCCCCCC)nc(NCCN2CCCC2)n1 [S11N9 D3]	23.1
CCCCCCCCCCCSc1nc(NCCCCCCCCC)nc(NCCN2CCCCC2)n1 [S11N9 D4]	1.1
CCCCCCCCCCCSc1nc(NCCCCCCCCC)nc(NCCN2CCN(C)CC2)n1 [S11N9 D5]	20.5
CCCCCCCCCCCSc1nc(NCCCCCCCCC)nc(NCCCN(C)C)n1 [S11N9 D6]	40.1
CCCCCCCCCCCSc1nc(NCCCCCCCCC)nc(NCCN(CC)CC)n1 [S11N9 D7]	2.0
CCCCCCCCCCCSc1nc(NCCCCCCCCC)nc(NCCCN2CCOCC2)n1 [S11N9 D8]	8.6
CCCCCCCCCCCSc1nc(NCCCCCCCCC)nc(NCCCN2CCN(C)CC2)n1 [S11N9 D9]	22.4
CCCCCCCCCCCSc1nc(NCCCCCCCCC)nc(NCC2CCN(C)CC2)n1 [S11N9 D10]	32.5
CCCCCCCCCCCNc1nc(NCCN(C)C)nc(SCCCCCCCCCCC)n1 [S11N11 D1]	17.8
CCCCCCCCCCCNc1nc(NCCN2CCOCC2)nc(SCCCCCCCCCCC)n1 [S11N11 D2]	6.3
CCCCCCCCCCCNc1nc(NCCN2CCCC2)nc(SCCCCCCCCCCC)n1 [S11N11 D3]	23.4
